Assay results taken from PMC3878827, “Synthesis and biological characterisation of ^18F-SIG343 and ^18F-SIG353, novel and high selectivity σ2 radiotracers, for tumour imaging properties” (EJNMMI Research, 2013).

Target: T1, σ2 receptor (Mus musculus, UniProt Q8VD00)
T1 construct: from tissue; host or cells: organs of Balb/C nude mice in vivo; tumour xenograft of A375 human amelanotic melanoma cells
T1 sequence (Q8VD00 1-176): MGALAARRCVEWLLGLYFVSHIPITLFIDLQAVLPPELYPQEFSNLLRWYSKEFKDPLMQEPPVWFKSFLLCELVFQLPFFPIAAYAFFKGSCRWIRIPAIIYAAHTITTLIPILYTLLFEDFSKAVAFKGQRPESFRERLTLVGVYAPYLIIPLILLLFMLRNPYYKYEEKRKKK
Assay: In vivo blocking studies in A375 tumour-bearing mice
Design: species or system Balb/C nude mice
Settings: unlabelled SIG353-treated group, 1 mg/kg, 30 min p.i.
Method: Female Balb/C nude mice aged 5 to 6 weeks old were obtained from the Animal Resource Centre (Perth, Australia). The animals were kept at a constant temperature of 22°C ± 2°C on a 12/12 h light/dark cycle with lights on at 09:00 am. Food and water were freely available. After a week of acclimatisation, mice were injected subcutaneously in the left flank with 1 × 10^6 A375 human amelanotic melanoma cells, in 100 μL of Ca^2+/Mg^2+-free phosphate buffered saline. The procedure was performed without anaesthetic. For in vivo studies, A375 tumour-bearing mice were used 26 days after tumour inoculation.
Blocking studies were performed to investigate the specific uptake of the tracer via σ2 receptor mechanism. […] Control mice received saline only. Five minutes after injection of the blocking drug, ^18F-SIG343 or ^18F-SIG353 (1 MBq/100 μL of saline) was injected, and groups of mice (n = 5) were sacrificed 30 min post injection of the radiotracer. Organs were processed as described for the biodistribution study. Radioactivity concentrations in the organs in the treatment groups were compared to that measured in control mice.

- Increase (↑) of radiotracer uptake in pancreas versus control: 37%
SMILES: COc1cc2c(cc1OC)CN(CCCCCN1C(=O)c3ccc([18F])cc3C1=O)CC2 [^18F-SIG353]
